“Also recorded” adds a separate entry of the source. Where no end group is shown, it is not given here.
Test system: Primary human MSCs
Assay: EV secretion per cell from MSCs on hydrogel substrates, nanoparticle tracking analysis
Type: cell-based
Settings: for EV secretion vs vehicle: 3 μM MnCl2 during and after adhesion, elastic alginate-RGD hydrogels, soft and stiff
Protocol: Cell Seeding on Hydrogels. Hydrogel discs were placed in ultra-low binding polystyrene well plates (Corning) to ensure cells attach to hydrogels and not the plate surface. Hydrogels were washed with Hank's buffered salt solution (HBSS, Thermo Fisher Scientific) for at least 3 days before seeding cells. Cells were seeded at a low density (25 cells/mm^2). After seeding, hydrogels were washed thoroughly to remove unattached cells. Drug treatments of 3 μM MnCl2 (Thermo Fisher Scientific), 200 nM EMD 121974 sold under the tradename Cilengitide® (Cayman) and 5 μM CK869 (Cayman) were applied during and after cell adhesion to substrates. To evaluate the number of live cells seeded on substrates, cells were detached by incubating with a natural enzyme mixture with proteolytic and collagenolytic enzyme activity sold under the tradename ACCUTASE® Cell Detachment Solution (Innovative Cell Technologies, Inc.) for 10 minute at 37° C. Cells were then washed by centrifugation and directly added to HBSS containing calcein AM (1:2000; Biotium), ethidium bromide (1:2000; Thermo Fisher Scientific), and a predefined number of allophycocyanin (APC) beads (BD). After incubation at room temperature (RT) for 10 minutes, the samples were analyzed for live and dead cell number by flow cytometry.
Particle Size and Number Characterization. Particle size and number were obtained using Nanoparticle Tracking Analysis 3.2 (NTA) via NanoSight NS300 (Malvern) using a 405 nm laser. Samples were introduced by syringe pump at a rate 100 μL/min. Three thirty-second videos were acquired using camera level 14 followed by detection threshold 7. Camera focus, shutter, blur, minimum track length, minimum expected particle size and maximum jump length were set automatically by the software. Samples were diluted as needed to maintain particles per video from 100-2000. To ensure specificity, all samples were tested as compared to appropriate blank conditions.
To test the effect of substrate mechanics on EV secretion from MSCs, hydrogel substrates were engineered which were composed of alginate polymer conjugated with the cell adhesion peptide Arg-Gly-Asp (RGD) that binds primarily to αvβ3 and α5β1 integrins. Alginate-RGD hydrogels can be formed either covalently through adipic acid dihydrazide or physically through divalent cations, resulting in elastic or stress-relaxing hydrogels, respectively. For both types of hydrogels, elastic modulus (Young's modulus, E) of ˜3 kPa ‘soft’ and E ˜20 kPa ‘stiff’ were considered values that represent a physiologically relevant range of substrate elasticity for MSC mechanosensing, while E is ˜0.1 GPa for conventional plastic substrates. Primary human bone marrow MSCs were allowed to adhere to substrates for 24 hours followed by washout and collection of the serum-free conditioned medium from MSCs after 24 hours. After centrifugation of the medium at 10,000 g to remove cell, apoptotic, and larger particle fractions, particles remaining in the medium were analyzed by nanoparticle tracking analysis and normalized to the number of live adhered cells counted by flow cytometry (see Methods). MSCs were seeded at low density (˜25 cells/mm^2) to avoid potential effects from cell-cell interactions. […] Thus, focus was placed on the EVs remaining in the supernatant after the 10,000 g centrifugation. For these EVs, the particle size distribution remained similar across different substrates with median diameter ˜120 nm (FIG. 1B). […] Moreover, EVs from different substrates expressed similar levels of late endosomal markers CD63 and CD9. Importantly, levels of ribosomal RNA (rRNA) in particle preparations were similar across hydrogels or plastic substrates, and rRNA as a percentage of total RNA was lower than that found in untreated MSCs or particles derived from H2O2-treated apoptotic MSCs, ruling out apoptosis as a potential factor of increased EV secretion on the soft hydrogel. […]

**Q.** What does the source list for “RGD: cell adhesion peptide, amino acid sequence GGGGRGDSP (SEQ ID NO:1), conjugated to hydrogel (also: conjugated to hydrogel)”?
**A.** EV secretion on decreasing the amount of RGD conjugated in hydrogels (FIG. 5): significantly increases EV secretion; increase in EV secretion per cell (decreasing RGD concentration from 0.8 to 0.16 mM, both soft and stiff hydrogels): ~2 fold

**Q.** For `[Cl][Mn][Cl]` [MnCl2], which “EV secretion vs vehicle” value is on record?
**A.** inhibits EV secretion

**Q.** What about the “EV secretion vs vehicle” value (listed as Mn^2+) of the same compound?
**A.** decreased to a greater extent on the soft hydrogel than the stiff hydrogel

**Q.** How did the EV secretion (200 nM EMD 121974 during and after adhesion, soft and stiff hydrogels) turn out when `CC(C)[C@H]1C(=O)N[C@@H](CCCN=C(N)N)C(=O)NCC(=O)N[C@@H](CC(=O)O)C(=O)N[C@H](Cc2ccccc2)C(=O)N1C` [EMD 121974] was run?
**A.** significantly increased EV secretion on both soft and stiff hydrogels; also recorded: enhances EV secretion

**Q.** `Cc1ccc2c(c1)C(=O)C1(O)CCN(c3ccccc3)C1=N2` (stereo not drawn) [blebbistatin] was tested. Which exosome secretion (50 μM blebbistatin, soft or stiff elastic alginate-RGD hydrogels) did it give?
**A.** did not impact exosome secretion

Source: patent US20230279379A1, “METHODS AND MICROFLUIDIC DEVICE FOR PRODUCING EXTRACELLULAR VESICLES” (THE BOARD OF TRUSTEES OF THE UNIVERSITY OF ILLINOIS, priority 2022, published 2023)
